Structures can show the parent of a compound that is named as a salt. Active and inactive are the calls of the source.
Key:
Candida albicans [1] = assay: growth inhibition of azole-resistant C. albicans, dose response, CaCi-8 strain, Alamar Blue, dry powder, set 3 (AID 488905); assay type: functional, organism-based
Candida albicans [2] = assay: reversal of fluconazole resistance in C. albicans, dose response, CaCi-2 strain, Alamar Blue, dry powder, set 3 (AID 488907); assay type: functional, organism-based
HeLa = assay: HeLa cell cytotoxicity, dose response, cytotoxicity control for MITF activator project, CellTiter-Glo luminescence, cherry-pick samples (AID 540259); assay type: functional, cell-based; details: Homo sapiens
Caspase-3 [3] = target: T1, Caspase-3 (Homo sapiens, UniProt P42574); assay type: functional
T1 sequence (P42574 whole entry): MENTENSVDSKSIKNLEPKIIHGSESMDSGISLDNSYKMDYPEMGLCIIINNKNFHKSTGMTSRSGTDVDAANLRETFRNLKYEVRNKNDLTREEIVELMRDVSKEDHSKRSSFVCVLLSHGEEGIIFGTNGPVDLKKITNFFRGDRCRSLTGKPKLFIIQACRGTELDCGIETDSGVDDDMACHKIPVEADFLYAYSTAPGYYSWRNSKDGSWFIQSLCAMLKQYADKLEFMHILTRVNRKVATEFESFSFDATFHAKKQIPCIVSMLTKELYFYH

[4] = target: T2, Sentrin-specific protease 8 (Homo sapiens, UniProt Q96LD8); assay type: functional;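 further: luminescence read-out of SENP8 inhibition, dose-response confirmation following an ultra-high-throughput screen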
T2 sequence (Q96LD8 whole entry): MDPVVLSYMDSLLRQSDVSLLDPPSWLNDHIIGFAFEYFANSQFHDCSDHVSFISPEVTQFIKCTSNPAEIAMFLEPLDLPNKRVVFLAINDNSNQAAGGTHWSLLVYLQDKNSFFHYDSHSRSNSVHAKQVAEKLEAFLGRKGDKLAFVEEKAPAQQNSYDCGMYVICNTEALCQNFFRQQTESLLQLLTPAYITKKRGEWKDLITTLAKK

[5] = target: T3, Sentrin-specific protease 6 (Homo sapiens, UniProt Q9GZR1); assay type: functional
T3 sequence (Q9GZR1 whole entry): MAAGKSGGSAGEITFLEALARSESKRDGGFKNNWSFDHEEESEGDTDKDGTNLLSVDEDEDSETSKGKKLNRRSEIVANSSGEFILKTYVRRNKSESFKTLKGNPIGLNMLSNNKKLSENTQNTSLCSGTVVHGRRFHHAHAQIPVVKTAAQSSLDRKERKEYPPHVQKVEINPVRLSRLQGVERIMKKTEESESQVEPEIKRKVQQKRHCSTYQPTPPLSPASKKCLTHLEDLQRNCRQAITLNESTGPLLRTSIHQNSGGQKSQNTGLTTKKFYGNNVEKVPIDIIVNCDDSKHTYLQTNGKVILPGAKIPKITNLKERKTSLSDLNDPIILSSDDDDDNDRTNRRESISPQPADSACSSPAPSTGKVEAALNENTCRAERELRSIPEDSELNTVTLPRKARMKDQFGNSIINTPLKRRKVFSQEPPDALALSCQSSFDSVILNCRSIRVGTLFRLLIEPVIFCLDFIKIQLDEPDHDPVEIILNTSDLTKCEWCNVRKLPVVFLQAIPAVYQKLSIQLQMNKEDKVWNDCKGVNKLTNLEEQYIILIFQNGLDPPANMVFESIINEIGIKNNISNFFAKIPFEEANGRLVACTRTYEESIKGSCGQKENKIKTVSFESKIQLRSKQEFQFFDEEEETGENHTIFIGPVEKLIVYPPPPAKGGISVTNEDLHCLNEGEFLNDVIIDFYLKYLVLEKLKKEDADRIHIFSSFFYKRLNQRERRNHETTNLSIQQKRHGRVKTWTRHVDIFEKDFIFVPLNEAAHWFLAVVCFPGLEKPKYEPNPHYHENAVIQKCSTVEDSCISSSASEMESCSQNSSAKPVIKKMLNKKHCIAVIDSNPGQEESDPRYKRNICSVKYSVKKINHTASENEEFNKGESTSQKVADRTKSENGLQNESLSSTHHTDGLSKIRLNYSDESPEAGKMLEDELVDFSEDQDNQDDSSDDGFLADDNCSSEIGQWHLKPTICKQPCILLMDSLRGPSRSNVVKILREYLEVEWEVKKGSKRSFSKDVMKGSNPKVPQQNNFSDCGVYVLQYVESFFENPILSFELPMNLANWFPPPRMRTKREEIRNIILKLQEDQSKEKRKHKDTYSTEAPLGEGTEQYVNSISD

[6] = target: T4, Sentrin-specific protease 7 (Homo sapiens, UniProt Q9BQF6); assay type: functional;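 further: Luminescence-based dose-response confirmation of ultra-high-throughput screening hits, measuring inhibition of SENP7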
T4 sequence (Q9BQF6 whole entry): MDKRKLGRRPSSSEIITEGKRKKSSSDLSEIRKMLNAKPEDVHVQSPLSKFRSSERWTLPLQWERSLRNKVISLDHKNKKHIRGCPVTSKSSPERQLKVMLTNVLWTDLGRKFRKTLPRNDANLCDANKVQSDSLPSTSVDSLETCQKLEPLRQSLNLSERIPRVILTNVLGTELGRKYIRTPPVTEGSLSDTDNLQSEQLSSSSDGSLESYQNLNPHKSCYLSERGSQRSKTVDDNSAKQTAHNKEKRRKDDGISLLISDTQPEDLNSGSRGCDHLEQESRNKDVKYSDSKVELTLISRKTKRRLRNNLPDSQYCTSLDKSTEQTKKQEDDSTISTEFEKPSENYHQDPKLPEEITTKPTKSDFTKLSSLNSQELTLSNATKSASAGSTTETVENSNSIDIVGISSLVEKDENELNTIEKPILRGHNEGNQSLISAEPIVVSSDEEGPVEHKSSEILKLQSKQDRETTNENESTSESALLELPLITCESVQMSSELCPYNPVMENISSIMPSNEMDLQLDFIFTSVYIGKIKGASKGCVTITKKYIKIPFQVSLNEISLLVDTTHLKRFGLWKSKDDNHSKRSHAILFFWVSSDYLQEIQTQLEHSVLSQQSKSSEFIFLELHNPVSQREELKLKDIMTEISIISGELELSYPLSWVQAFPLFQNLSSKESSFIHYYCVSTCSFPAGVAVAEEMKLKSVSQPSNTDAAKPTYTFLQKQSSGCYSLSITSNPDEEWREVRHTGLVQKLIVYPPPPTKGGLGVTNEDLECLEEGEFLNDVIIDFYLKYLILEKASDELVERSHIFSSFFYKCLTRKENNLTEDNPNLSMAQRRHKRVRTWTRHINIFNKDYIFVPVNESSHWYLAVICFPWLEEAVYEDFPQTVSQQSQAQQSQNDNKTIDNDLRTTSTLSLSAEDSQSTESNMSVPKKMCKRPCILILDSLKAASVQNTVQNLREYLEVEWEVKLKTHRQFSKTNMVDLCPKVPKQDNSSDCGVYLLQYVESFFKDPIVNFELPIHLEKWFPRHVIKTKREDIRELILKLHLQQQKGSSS

[7] = target: Dual specificity tyrosine-phosphorylation-regulated kinase 1A (Rattus norvegicus, UniProt Q63470); assay type: biochemical, Homo sapiens
[8] = target: Dual specificity protein kinase CLK1 (Homo sapiens, UniProt P49759); assay: CLK1 kinase inhibitors, off-target check, dose response, selectivity assay for Dyrk1A inhibitor project, biochemical, cherry-picked samples (AID 588811)
[9] = ZM109 Env clade C HIV-1 fusion inhibitors, dose response, HeLa effector, CEM target cells, luciferase, cherry-pick (AID 652058); assay type: functional, cell-based
[10] = target: T5, Endoribonuclease toxin MazF (Escherichia coli K-12, UniProt P0AE70); assay: fluorescent RNA oligo signal without MazF, dose response, counter-screen for MazEF activator project, biochemical, fluorescence, single-stranded RNase substrate (AID 588502); assay type: functional
T5 sequence (P0AE70 whole entry, the tested form may be a part): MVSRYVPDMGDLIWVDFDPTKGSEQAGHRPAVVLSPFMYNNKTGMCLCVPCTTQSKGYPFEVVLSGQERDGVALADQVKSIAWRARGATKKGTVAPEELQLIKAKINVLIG

[11] = inhibitors of HIV Env-driven cell fusion, dose response, cherry-pick (AID 652057); assay type: functional, cell-based
[12] = target: T5, Endoribonuclease toxin MazF; assay: MazF toxin RNase activators, dose response, biochemical, fluorescence, single-stranded RNA substrate, uHTS hits (AID 588481); assay type: functional
[13] = target: 5-hydroxytryptamine receptor 5A (Homo sapiens, UniProt P47898); assay: Counterscreen for agonists of OPRM1-OPRD1 heterodimerization: luminescence-based cell-based high throughput dose response assay to identify agonists of 5-hydroxytryptamine (serotonin) 5A receptor (HTR5A). [Related pubchem assays (depositor defined):AID504326, AID504355, AID504692, AID504904, AID504905]; assay type: functional
Sequence of 5-hydroxytryptamine receptor 5A (P47898 whole entry): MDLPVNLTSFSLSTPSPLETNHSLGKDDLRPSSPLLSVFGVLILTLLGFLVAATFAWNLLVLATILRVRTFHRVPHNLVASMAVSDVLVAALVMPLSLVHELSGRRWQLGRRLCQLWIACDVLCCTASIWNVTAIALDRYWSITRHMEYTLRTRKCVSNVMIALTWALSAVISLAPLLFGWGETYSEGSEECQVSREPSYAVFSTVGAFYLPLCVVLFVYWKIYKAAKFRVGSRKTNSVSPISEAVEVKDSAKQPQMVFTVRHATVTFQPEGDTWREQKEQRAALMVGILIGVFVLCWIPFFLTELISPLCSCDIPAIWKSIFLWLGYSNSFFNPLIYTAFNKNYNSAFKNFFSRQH

[14] = target: Delta-type opioid receptor (Homo sapiens, UniProt P41143); assay: Counterscreen for agonists of heterodimerization of the mu 1 (OPRM1) and delta 1 (OPRD1) opioid receptors: Luminescence-based cell-based high throughput dose response assay to identify agonists of OPRD1 homodimerization. [Related pubchem assays (depositor defined):AID504326, AID504355, AID504692, AID504904, AID504905]; assay type: functional
Mu-type opioid receptor = Mu-type opioid receptor (Homo sapiens, UniProt P35372); assay: Counterscreen for agonists of heterodimerization of the mu 1 (OPRM1) and delta 1 (OPRD1) opioid receptors: Luminescence-based cell-based high throughput dose response assay to identify agonists of OPRM1 homodimerization.; assay type: functional;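 further: U2OS cells expressing OPRM1 and beta-arrestin as split beta-galactosidase partners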
Sequence of Mu-type opioid receptor (P35372 whole entry, the tested form may be a part): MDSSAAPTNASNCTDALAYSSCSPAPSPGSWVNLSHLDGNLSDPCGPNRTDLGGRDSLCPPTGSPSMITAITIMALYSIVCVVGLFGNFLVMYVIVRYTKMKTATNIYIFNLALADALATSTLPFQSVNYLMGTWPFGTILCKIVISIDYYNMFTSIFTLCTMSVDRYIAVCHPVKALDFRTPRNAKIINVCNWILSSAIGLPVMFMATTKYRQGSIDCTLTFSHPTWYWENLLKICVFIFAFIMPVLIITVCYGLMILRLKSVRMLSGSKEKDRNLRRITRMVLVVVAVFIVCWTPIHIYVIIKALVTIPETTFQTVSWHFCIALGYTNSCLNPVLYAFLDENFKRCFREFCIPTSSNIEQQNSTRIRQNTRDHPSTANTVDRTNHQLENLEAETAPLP

[15] = CEM21 lymphoblast cell cytotoxicity, dose response, cytotoxicity control for viral fusion inhibitor project, CellTiter-Glo luminescence, cherry-picked (AID 652042); assay type: functional, cell-based;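 further: potency for signal decrease meaning cytotoxicity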
Insulin-degrading enzyme [16] = target: T6, Insulin-degrading enzyme (Homo sapiens, UniProt P14735); assay: activators of recombinant IDE enzyme, dose response, counter-screen for IDE activator project, biochemical, fluorescence polarization (AID 588681)
T6 sequence (P14735 whole entry): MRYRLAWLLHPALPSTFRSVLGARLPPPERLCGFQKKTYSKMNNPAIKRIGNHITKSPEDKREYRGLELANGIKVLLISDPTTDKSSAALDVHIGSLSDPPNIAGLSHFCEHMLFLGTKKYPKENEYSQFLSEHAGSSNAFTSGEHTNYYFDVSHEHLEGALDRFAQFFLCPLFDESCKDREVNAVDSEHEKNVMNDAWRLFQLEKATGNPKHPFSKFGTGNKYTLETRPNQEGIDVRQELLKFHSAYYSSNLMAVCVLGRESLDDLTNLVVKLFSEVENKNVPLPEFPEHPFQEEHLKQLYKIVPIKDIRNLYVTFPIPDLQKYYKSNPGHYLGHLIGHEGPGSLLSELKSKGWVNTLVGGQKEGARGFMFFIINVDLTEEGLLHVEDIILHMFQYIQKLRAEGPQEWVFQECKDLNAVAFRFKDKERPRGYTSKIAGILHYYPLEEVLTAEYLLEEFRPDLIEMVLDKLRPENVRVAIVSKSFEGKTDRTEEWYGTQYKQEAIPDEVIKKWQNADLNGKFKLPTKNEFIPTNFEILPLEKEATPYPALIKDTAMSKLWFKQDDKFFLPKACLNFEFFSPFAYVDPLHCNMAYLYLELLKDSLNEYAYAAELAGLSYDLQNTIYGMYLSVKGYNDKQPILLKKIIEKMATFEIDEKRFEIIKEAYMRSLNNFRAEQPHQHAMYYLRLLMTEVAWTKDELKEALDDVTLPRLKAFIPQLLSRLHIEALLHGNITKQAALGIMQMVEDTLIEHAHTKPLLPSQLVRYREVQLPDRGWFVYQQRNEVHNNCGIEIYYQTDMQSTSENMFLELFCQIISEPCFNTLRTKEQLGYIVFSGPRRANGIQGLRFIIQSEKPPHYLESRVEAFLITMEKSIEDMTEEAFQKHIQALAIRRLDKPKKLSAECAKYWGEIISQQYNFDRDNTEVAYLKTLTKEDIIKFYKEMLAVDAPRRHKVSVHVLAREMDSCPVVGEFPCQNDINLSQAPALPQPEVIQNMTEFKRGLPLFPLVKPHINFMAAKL

HEK293 [17] = assay: optical interference in Abeta FP readout, dose response, artefact control for IDE activator project, biochemical, fluorescence polarization (AID 588442); assay type: functional, cell-based; details: Homo sapiens
Insulin-degrading enzyme [18] = target: T6, Insulin-degrading enzyme; assay: activators of endogenous IDE in HEK cells, dose response, cell-based, fluorescence polarization (AID 588439); assay type: functional
Cytochrome P450 2C19 = Cytochrome P450 2C19 (Homo sapiens, UniProt P33261); assay: Cytochrome panel assay with activity outcomes. Panel member name: p450-cyp2c19 Compounds with AC50 equal or less than 10 uM are considered active; assay type: functional
Sequence of Cytochrome P450 2C19 (P33261 whole entry): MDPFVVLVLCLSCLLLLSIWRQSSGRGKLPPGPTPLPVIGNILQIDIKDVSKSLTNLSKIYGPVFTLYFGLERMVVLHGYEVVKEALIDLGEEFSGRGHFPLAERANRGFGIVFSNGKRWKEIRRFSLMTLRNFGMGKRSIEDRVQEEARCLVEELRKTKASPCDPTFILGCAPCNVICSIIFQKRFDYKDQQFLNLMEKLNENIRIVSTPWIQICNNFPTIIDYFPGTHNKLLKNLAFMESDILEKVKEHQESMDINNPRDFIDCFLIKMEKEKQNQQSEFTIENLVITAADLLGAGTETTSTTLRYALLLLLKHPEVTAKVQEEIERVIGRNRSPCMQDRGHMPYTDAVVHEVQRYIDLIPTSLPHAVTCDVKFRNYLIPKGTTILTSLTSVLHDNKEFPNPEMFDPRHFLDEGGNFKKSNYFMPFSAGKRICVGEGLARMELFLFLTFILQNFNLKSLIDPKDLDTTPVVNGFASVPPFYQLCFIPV

HEK293 [19] = assay: HEK cell cytotoxicity by LDH release, dose response, cytotoxicity control for IDE activator project, fluorescence, HEK cells (AID 588440); assay type: functional, cell-based; details: Homo sapiens;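 further: cytotoxicity by LDH release measuring loss of membrane integrity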
[20] = target: Type-1 angiotensin II receptor (Homo sapiens, UniProt P30556); assay: AT1 receptor antagonists, dose response, selectivity assay for APJ receptor antagonist project, cell-based, uHTS hits (AID 463214); assay type: functional;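 further: antagonist potency against angiotensin II stimulated AT1 response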
Sequence of Type-1 angiotensin II receptor (P30556 whole entry): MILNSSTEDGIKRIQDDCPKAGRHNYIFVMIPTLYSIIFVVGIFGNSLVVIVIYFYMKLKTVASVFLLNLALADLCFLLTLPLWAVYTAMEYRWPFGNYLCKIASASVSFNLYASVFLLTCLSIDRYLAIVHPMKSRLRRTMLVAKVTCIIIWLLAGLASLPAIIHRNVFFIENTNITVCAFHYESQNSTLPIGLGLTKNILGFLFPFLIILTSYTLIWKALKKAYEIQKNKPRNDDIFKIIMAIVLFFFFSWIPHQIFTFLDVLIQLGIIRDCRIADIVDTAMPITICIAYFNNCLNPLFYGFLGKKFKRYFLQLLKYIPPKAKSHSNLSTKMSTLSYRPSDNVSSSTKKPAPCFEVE

Beta-galactosidase = Beta-galactosidase (Escherichia coli, UniProt Q8VNN2); assay: PubChem AID 485352; assay type: functional
Phospholipase D2 = Phospholipase D2 (Homo sapiens, UniProt O14939); assay: PLD2 inhibitor potency in cells, dose response (AID 602147); assay type: functional;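 further: cellular assay in HEK293 cells overexpressing GFP-tagged PLD2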
Sequence of Phospholipase D2 (O14939 whole entry): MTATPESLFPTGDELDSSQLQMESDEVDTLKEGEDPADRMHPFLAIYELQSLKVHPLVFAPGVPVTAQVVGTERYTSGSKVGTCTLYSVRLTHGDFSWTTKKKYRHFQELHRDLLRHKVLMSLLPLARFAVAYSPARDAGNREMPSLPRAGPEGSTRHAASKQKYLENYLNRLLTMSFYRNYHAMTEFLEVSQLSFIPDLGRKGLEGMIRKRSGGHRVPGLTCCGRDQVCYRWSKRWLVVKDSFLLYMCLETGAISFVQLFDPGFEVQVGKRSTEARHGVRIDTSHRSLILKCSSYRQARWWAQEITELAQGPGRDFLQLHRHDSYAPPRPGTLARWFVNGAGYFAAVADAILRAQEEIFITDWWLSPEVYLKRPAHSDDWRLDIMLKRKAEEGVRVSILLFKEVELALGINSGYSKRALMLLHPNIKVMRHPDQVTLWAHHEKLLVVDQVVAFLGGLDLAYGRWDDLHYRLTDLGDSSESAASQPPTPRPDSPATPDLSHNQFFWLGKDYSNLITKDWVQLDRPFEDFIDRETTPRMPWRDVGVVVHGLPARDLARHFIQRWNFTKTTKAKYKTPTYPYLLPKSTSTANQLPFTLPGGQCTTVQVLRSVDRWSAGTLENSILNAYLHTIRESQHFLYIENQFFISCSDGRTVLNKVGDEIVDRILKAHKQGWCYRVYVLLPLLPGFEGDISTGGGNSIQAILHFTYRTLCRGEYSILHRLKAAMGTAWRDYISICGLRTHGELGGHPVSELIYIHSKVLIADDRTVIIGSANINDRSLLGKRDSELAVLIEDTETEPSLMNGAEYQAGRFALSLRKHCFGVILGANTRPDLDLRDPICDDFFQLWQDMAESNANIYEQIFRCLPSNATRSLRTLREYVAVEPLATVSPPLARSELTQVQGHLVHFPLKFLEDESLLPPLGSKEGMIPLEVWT

Phospholipase D1 = Phospholipase D1 (Homo sapiens, UniProt Q13393); assay: PLD1 inhibitor potency in cells, dose response (AID 602151); assay type: functional;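 further: cellular PLD1 assay in Calu-1 cells stimulated with PMA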
Sequence of Phospholipase D1 (Q13393 whole entry): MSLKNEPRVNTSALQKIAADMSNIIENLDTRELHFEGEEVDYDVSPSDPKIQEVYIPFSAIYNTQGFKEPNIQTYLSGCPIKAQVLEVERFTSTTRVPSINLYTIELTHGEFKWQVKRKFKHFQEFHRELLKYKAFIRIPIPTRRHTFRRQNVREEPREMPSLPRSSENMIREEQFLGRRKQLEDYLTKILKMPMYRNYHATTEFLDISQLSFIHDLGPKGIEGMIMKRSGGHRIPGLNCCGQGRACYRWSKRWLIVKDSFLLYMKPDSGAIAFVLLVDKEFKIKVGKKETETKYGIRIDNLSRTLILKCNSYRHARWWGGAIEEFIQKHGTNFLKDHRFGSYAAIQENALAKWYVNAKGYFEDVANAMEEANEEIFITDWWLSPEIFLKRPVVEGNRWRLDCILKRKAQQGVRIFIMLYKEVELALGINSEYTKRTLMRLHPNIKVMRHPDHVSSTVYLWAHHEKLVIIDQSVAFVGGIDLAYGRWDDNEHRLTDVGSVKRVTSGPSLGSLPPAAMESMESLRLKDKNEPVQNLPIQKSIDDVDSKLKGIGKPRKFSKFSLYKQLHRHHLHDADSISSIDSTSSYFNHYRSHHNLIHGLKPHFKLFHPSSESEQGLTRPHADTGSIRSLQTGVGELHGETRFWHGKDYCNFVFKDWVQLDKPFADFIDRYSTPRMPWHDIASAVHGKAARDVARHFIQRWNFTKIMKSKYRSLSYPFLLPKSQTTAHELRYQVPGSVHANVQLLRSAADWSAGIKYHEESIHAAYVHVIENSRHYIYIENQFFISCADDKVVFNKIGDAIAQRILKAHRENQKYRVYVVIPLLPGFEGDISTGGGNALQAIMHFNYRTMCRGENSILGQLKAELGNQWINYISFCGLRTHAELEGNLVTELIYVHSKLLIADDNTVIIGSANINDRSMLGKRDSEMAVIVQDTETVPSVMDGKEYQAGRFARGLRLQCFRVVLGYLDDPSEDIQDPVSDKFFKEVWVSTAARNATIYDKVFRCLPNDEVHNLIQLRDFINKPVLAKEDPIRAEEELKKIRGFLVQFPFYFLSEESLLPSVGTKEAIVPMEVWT

[21] = target: T2, Sentrin-specific protease 8; assay: SENP8 protease inhibitors, SAR follow-up, biochemical, luminescence (AID 504501); assay type: functional
[22] = target: T4, Sentrin-specific protease 7; assay: SENP7 protease inhibitors, SAR follow-up, biochemical, luminescence (AID 504497); assay type: functional
Caspase-3 [23] = target: T1, Caspase-3; assay: SAR Analysis of small molecule inhibitors of Sentrin-specific proteases (SENPs) using a Caspase-3 Selectivity assay. [Related pubchem assays (depositor defined):AID2540, AID2599, AID434973, AID489001]; assay type: functional
[24] = target: T3, Sentrin-specific protease 6; assay: SAR Analysis of small molecule inhibitors of Sentrin-specific protease 6 (SENP6) using a Luminescent assay. [Related pubchem assays (depositor defined):AID2582, AID2599]; assay type: functional
[25] = target: Voltage-gated inwardly rectifying potassium channel KCNH2 (Homo sapiens, UniProt Q12809); details: Potency;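 further: confirmatory quantitative high-throughput screen measuring inhibition of hERG channel activity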

Compound: O=C(c1ccc(F)cc1)N1CCN(c2ccccn2)CC1
- AC50 (Candida albicans [1]): 53.2 µM (active)
- AC50 (Candida albicans [2]): 4.43 µM (active)

Compound: COC(=O)Nc1nnc(-c2ccccc2Cl)s1
- AC50 (HeLa): 61.8 µM (active)
- IC50 (Caspase-3 [3]): 5.86 µM (active)
- IC50 [4]: 23.6 µM (active)
- IC50 [5]: 18.9 µM (active)
- IC50 [6]: 5.89 µM (active)

Compound: COc1cc(C(=O)Nc2cccc(-c3nncn3C)c2)cc(OC)c1OC
- AC50 [7]: 2.95 µM (active)
- AC50 [8]: 21.6 µM (active)

Compound: Nc1nonc1C(=O)NCCNCc1c(OCc2ccccc2F)ccc2ccccc12
- AC50 [9]: 14.1 µM (active)
- EC50 [10]: > 99 µM (inactive)
- AC50 [11]: 922 nM (active)
- EC50 [12]: > 99 µM (inactive)
- EC50 [13]: > 92.5 µM (inactive)
- EC50 [14]: 74.8 µM (inactive)
- EC50 (Mu-type opioid receptor): > 92.5 µM (inactive)
- AC50 [15]: 52.6 µM (active)

Compound: O=C(/C=C/c1ccc(Cl)cc1)Nc1ccc(N2CCCCC2)cc1
- EC50 (Insulin-degrading enzyme [16]): > 54.7 µM (inactive)
- EC50 (HEK293 [17]): > 54.7 µM (inactive)
- EC50 (Insulin-degrading enzyme [18]): > 54.7 µM (inactive)
- AC50 (Cytochrome P450 2C19): inconclusive
- IC50 (HEK293 [19]): > 89.2 µM (inactive)

Compound: O=C(CCl)NNc1cccc(Cl)n1
- IC50 [20]: 2.72 µM (active)
- EC50 (Beta-galactosidase): > 40 µM (inactive)

Compound: C[C@@H](CN1CCC2(CC1)C(=O)NCN2c1ccc(F)c(F)c1)NC(=O)c1cc2ccccc2[nH]1
- IC50 (Phospholipase D2): 34 nM (active)
- IC50 (Phospholipase D1): 3 nM (active)

Compound: C(=C\c1nc(-c2cc3ccccc3cn2)no1)/c1ccccc1
- IC50 [21]: > 99 µM (inactive)
- IC50 [22]: > 99 µM (inactive)
- IC50 (Caspase-3 [23]): > 99 µM (inactive)
- IC50 [24]: > 99 µM (inactive)

Compound: Cc1ccccc1/C=C/C1=NCCN1 [METRAZOLINE OXALATE]
- AC50 [25]: 15.8 µM (inconclusive)

Source: ChEMBL document CHEMBL1201862, “PubChem BioAssay data set” (2004)
